From ChEMBL document CHEMBL1135712, “Structure-activity relationships for pyrido-, imidazo-, pyrazolo-, pyrazino-, and pyrrolophenazinecarboxamides as topoisomerase-targeted anticancer agents” (J Med Chem, 2002)

Columns and labels:
NCI-H69 [1] = test: Inhibitory activity against drug resistant H69/LX4 line overexpressing P-glycoprotein; type: functional, cell-based; conditions: Homo sapiens
NCI-H69 [2] = test: Inhibitory activity against parental human small cell lung carcinoma cell line (H69P); type: functional, cell-based
[3] = tested on: Lewis lung carcinoma cell line; test: Inhibitory concentration to reduce cell number to 50% in a panel of cultured, murine Lewis lung carcinoma (LL) cells.; type: functional, cell-based; conditions: Mus musculus
P388 = test: Inhibitory activity against murine P388 leukemia (P388) cells.; type: functional, cell-based; conditions: Mus musculus
[4] = Ratio of IC50 in the cell -amsacrine-resistant Jurkat (JL A) / JL C; type: functional
[5] = Ratio of IC50 in the cell -doxorubicin-resistant Jurkat (JL D) / JL C; type: functional
[6] = Inhibitory concentration to reduce cell number to 50% in a panel of cultured, wild type human Jurkat leukemia (JL C) cells.; type: functional, cell-based
P388 (Mus musculus) = test: Inhibitory concentration to reduce cell number to 50% in a panel of cultured, murine P388 leukemia (P388) cells.

CN(C)CCNC(=O)c1cccc2nc3ccc4ccccc4c3nc12
IC50 (NCI-H69 [1]; read-out: IC50): 1.9 nM
IC50 (NCI-H69 [2]): 67 nM
IC50 [3]: 23 nM
IC50 (P388): 37 nM
Ratio [4]: 0.8
Ratio [5]: 0.9
IC50 [6]: 93 nM

COc1cccc2c1ccc1nc3cccc(C(=O)NCCN(C)C)c3nc12
IC50 (NCI-H69 [1]; read-out: IC50): 1.4 nM
IC50 (NCI-H69 [2]): 35 nM
IC50 (P388): 9.4 nM

CN(C)CCNC(=O)c1cccc2nc3ccc4cnn(C)c4c3nc12
IC50 (NCI-H69 [1]; read-out: IC50): 0.92 nM
IC50 (NCI-H69 [2]): 109 nM
IC50 [3]: 5.9 nM
IC50 (P388): 8.4 nM
Ratio [4]: 1
Ratio [5]: 1.1
IC50 [6]: 44 nM

COc1cccc2c1ccc1nc3cccc(C(=O)N[C@H](C)CN(C)C)c3nc12
IC50 (NCI-H69 [1]; read-out: IC50): 1.2 nM
IC50 (NCI-H69 [2]): 23 nM
IC50 (P388): 10 nM

CN(C)CCNC(=O)c1cccc2nc3ccc4cnccc4c3nc12
IC50 (NCI-H69 [1]; read-out: IC50): 0.64 nM
IC50 (NCI-H69 [2]): 88 nM
IC50 [3]: 6.4 nM
IC50 (P388): 5.6 nM
Ratio [4]: 3
Ratio [5]: 2.8
IC50 [6]: 28 nM

CN(C)CCNC(=O)c1cccc2nc3ccc4c(cnn4C)c3nc12
IC50 (NCI-H69 [1]; read-out: IC50): 1.2 nM
IC50 (NCI-H69 [2]): 130 nM
IC50 [3]: 25 nM
Ratio [4]: 0.8
Ratio [5]: 0.8
IC50 [6]: 98 nM
IC50 (P388 (Mus musculus)): 59 nM

CN(C)CCNC(=O)c1cccc2nc3ccc4cccnc4c3nc12
IC50 (NCI-H69 [1]; read-out: IC50): 2.1 nM
IC50 (NCI-H69 [2]): 294 nM
IC50 [3]: 89 nM
Ratio [4]: 0.7
Ratio [5]: 0.9
IC50 [6]: 317 nM

CN(C)CCNC(=O)c1cccc2nc3ccc4c(O)ccnc4c3nc12
IC50 (NCI-H69 [1]; read-out: IC50): > 4 nM
IC50 (NCI-H69 [2]): 2100 nM
IC50 (P388): 2700 nM

CN(C)CCNC(=O)c1cccc2nc3ccc4ccncc4c3nc12
IC50 (NCI-H69 [1]; read-out: IC50): 1.3 nM
IC50 (NCI-H69 [2]): 116 nM
IC50 [3]: 11 nM
IC50 (P388): 16 nM
Ratio [4]: 0.8
Ratio [5]: 1
IC50 [6]: 79 nM

CN(C)CCNC(=O)c1cccc2nc3ccc4nccnc4c3nc12
IC50 (NCI-H69 [1]; read-out: IC50): 1.5 nM
IC50 (NCI-H69 [2]): 234 nM
IC50 [3]: 54 nM
IC50 (P388): 85 nM
Ratio [4]: 1
Ratio [5]: 0.9
IC50 [6]: 165 nM

COc1ccnc2c1ccc1nc3cccc(C(=O)NCCN(C)C)c3nc12
IC50 (NCI-H69 [1]; read-out: IC50): 3.2 nM
IC50 (NCI-H69 [2]): 123 nM

CN(C)CCNC(=O)c1cccc2nc3ccccc3nc12
IC50 [3]: 1850 nM
IC50 (P388): 1100 nM
Ratio [4]: 0.8
Ratio [5]: 1
IC50 [6]: 2500 nM

COc1nccc2c1ccc1nc3cccc(C(=O)N[C@H](C)CN(C)C)c3nc12
IC50 (NCI-H69 [1]; read-out: IC50): 1.2 nM
IC50 (NCI-H69 [2]): 24 nM

COc1nccc2c1ccc1nc3cccc(C(=O)NCCN(C)C)c3nc12
IC50 (NCI-H69 [1]; read-out: IC50): 1.2 nM
IC50 (NCI-H69 [2]): 21 nM
IC50 [3]: 2.4 nM
IC50 (P388): 14 nM
Ratio [4]: 0.7
Ratio [5]: 0.7
IC50 [6]: 17 nM

CN(C)CCNC(=O)c1cccc2nc3ccc4c(O)nccc4c3nc12
IC50 (NCI-H69 [1]; read-out: IC50): 1.05 nM
IC50 (NCI-H69 [2]): 133 nM
IC50 (P388): 31 nM

CN(C)CCNC(=O)c1cccc2nc3ccc4c(ccn4C)c3nc12
IC50 (NCI-H69 [1]; read-out: IC50): 1.7 nM
IC50 (NCI-H69 [2]): 183 nM
IC50 (P388): 220 nM

CN(C)CCNC(=O)c1cccc2nc3ccc4[nH]cnc4c3nc12
IC50 (NCI-H69 [1]; read-out: IC50): 5.2 nM
IC50 (NCI-H69 [2]): 183 nM
IC50 [3]: 41 nM
IC50 (P388): 300 nM
Ratio [4]: 0.8
Ratio [5]: 0.9
IC50 [6]: 159 nM

COc1nccc2c1ccc1nc3cccc(C(=O)N[C@H](CO)CN(C)C)c3nc12
IC50 (NCI-H69 [1]; read-out: IC50): 1.2 nM
IC50 (NCI-H69 [2]): 24 nM

CN(C)CCNC(=O)c1cccc2nc3ccc4c[nH]nc4c3nc12
IC50 (NCI-H69 [1]; read-out: IC50): 0.95 nM
IC50 (NCI-H69 [2]): 524 nM
IC50 [3]: 66 nM
IC50 (P388): 98 nM
Ratio [4]: 1.1
IC50 [6]: 194 nM

CN(C)CCNC(=O)c1cccc2nc3ccc4ncccc4c3nc12
IC50 (NCI-H69 [1]; read-out: IC50): 1.2 nM
IC50 (NCI-H69 [2]): 124 nM
IC50 [3]: 20 nM
IC50 (P388): 42 nM
Ratio [4]: 0.8
Ratio [5]: 0.7
IC50 [6]: 74 nM

CN(C)CCNC(=O)c1cccc2nc3ccc4[nH]ncc4c3nc12
IC50 (NCI-H69 [1]; read-out: IC50): 4.5 nM
IC50 (NCI-H69 [2]): 107 nM
IC50 [3]: 4.1 nM
IC50 (P388): 6.8 nM
Ratio [4]: 4.2
Ratio [5]: 4.7
IC50 [6]: 21 nM

COc1cccc2c1C(=O)c1c(O)c3c(c(O)c1C2=O)C[C@@](O)(C(=O)CO)C[C@@H]3O[C@H]1C[C@H](N)[C@H](O)[C@H](C)O1 [DOXORUBICIN]
IC50 (NCI-H69 [1]): 137 nM
IC50 [6]: 9.6 nM
